Assay results taken from article PMC4102417 (PLoS Neglected Tropical Diseases, 2014).
Entries after “also recorded” stand apart in the source; their conditions may differ. Like-named read-outs stand apart in the source and are kept apart here.

How the values were obtained:
[1] = test system: T. cruzi (Tulahuen strain); experiment: microbe, parasite or virus in culture; format: cell-based, Trypanosoma cruzi; conditions: for activity at 10 µM: Table S2, read-out: T. cruzi % growth @ 10 uM (Amastigotes); for EC50: read-out: T. cruzi EC50
Summary of the method: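 Tulahuen parasites expressing beta-galactosidase were added (1×10^4 trypomastigotes/well) to 3T3 fibroblasts plated 24 h earlier, 4 h before compound (10 µM final).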

in vitro = format: cell-based, murine; conditions: mouse
3T3 fibroblast cells = experiment: cells; format: cell-based, murine; conditions: for activity at 10 µM: Mus musculus, NIH3T3, 72 h, Table S2, read-out: Mammalian (3T3) cell % growth at 10 uM
[2] = test system: T. cruzi (Tulahuen strain); experiment: Mouse model of acute T. cruzi infection; format: in vivo, BALB/c mice; conditions: oral gavage days 7-11 post-infection, doses of Table 5
Experimental: Age 8–10 week-old BALB/c female mice were obtained from Harlan Laboratories. Mice were infected with 1×10^4 tissue culture derived wild-type trypomastigotes of the Tulahuen strain by subcutaneous injection on day 0. They were administered test drugs in groups of five by oral gavage on days 7–11. All drugs were dissolved in vehicle composed of sodium carboxymethylcellulose 0.5% w/v, benzyl alcohol 0.5% v/v, Tween 80 0.4% v/v diluted in 0.9% aqueous NaCl solution. Parasitemia was quantified by examining tail blood specimens at times points indicated in Figures 2, 3, S4, and S5 as previously described.
Selected drugs identified in the above screens were tested alone or in combination in the mouse model of T. cruzi infection. In the first experiment, we focused on posaconazole and benznidazole because of their advanced clinical status for treating Chagas disease. Since benznidazole and posaconazole are known to have curative activity as monotherapies, we used sub-curative doses so that additive or synergistic interactions could be detected when used in combinations. The other drugs were administered at doses described in the literature for treating mice. Briefly, mice were gavaged once or twice daily with a given drug or combination on days 7–11 post-infection. We conducted a second experiment (Figure 3) examining the same drugs with the purpose of confirming and expanding upon the initial results shown in Figure 2.

T. brucei = conditions: cited from earlier work
T. cruzi amastigotes = experiment: Combination screen of drug pairs at EC25; format: cell-based, Trypanosoma cruzi; conditions: at EC25, alone or in combination
Experimental: […] compounds were selected for testing in combinations. All two-way combinations were tested (300 experiments). First, EC25 concentrations were determined for the individual compounds against T. cruzi amastigotes as described above. To test for synergy, compounds were evaluated in quadruplicate individually at the experimentally determined EC25, and in combination with other compounds at each respective EC25 concentration (further explained in the Discussion section). For inclusion in downstream analysis, each individual compound in a pair was required to inhibit 25±10% of growth in positive control (untreated) wells. If not in this range, the experiment was repeated. The measured growth of T. cruzi amastigotes was compared to the predicted effect of the combination as follows. Assuming a simple additive effect, the predicted inhibition of the drug pairs was expected to be the product of the percent-growths of each compound when tested alone. For example, if compound A gave 75% growth of the control and compound B gave 80% of the control growth, then the combination would be predicted to be 60% (i.e., 75%×80% = 60%).
Cells in green indicate a greater effect than predicted (“synergism”) and the squares in red indicate a lesser effect than predicated (“antagonism”).

[3] = Trypanosoma cruzi, TULAHUEN, Fibroblast, 120 h
[4] = Trypanosoma cruzi, TULAHUEN, Fibroblast, 120 h, intracellular amastigotes, 5 days, separate assays separated by semicolons
[5] = average mammalian cell CC50 divided by average T. cruzi EC50
[6] = 3T3 fibroblasts, 72 hours, separate assays separated by semicolons, read-out: Mammalian cell CC50
[7] = intracellular amastigotes, 5 days, separate assays separated by semicolons

Row | Compound | Selectivity index [1] | activity at 10 µM [1, 3] | EC50 [1, 4] | activity at 10 µM (3T3 fibroblast cells) | parasitemia [2] | Selectivity index [1, 5] | CC50 (in vitro; [6]) | other results
1 | CCOC(=O)C1=C(COCCN)NC(C)=C(C(=O)OC)C1c1ccccc1Cl.O=S(=O)(O)c1ccccc1 (centres unmarked) [Amlodipine, 3-ethyl 5-methyl 2-[(2-aminoethoxy)methyl]-4-(2-chlorophenyl)-6-methyl-1,4-dihydropyridine-3,5-dicarboxylate; benzenesulfonic acid] | 11.8 | 13.3% | 1.1 µM | 100% | no differences compared to the vehicle treated mice; also recorded: slight effects | – | – | CC50 (in vitro; Mammalian cell CC50 (nM)): 13000 nM
2 | CCc1nc(N)nc(N)c1-c1ccc(Cl)cc1 [Pyrimethamine, 5-(4-chlorophenyl)-6-ethylpyrimidine-2,4-diamine] | – | 24.2% | 3.82 µM | 97.6% | – | 7.5 | 28500 nM | EC50 ([1]; Trypanosoma cruzi, TULAHUEN, Fibroblast): 3.8 µM; EC50 (T. brucei): 17 µM
3 | Nc1nc(N)c2nc(-c3ccccc3)c(N)nc2n1 [Triamterene, 6-phenylpteridine-2,4,7-triamine] | 11.4 | 17.3% | 1.66 µM | 72.7% | – | – | 23000 nM | EC50 ([1]; Trypanosoma cruzi, TULAHUEN, Fibroblast, Table S2, amastigotes): 18.9 µM; CC50 (3T3 fibroblast cells; [6]): 14.8 µM; activity against T. brucei (T. brucei; no reference given): 48 µM
4 | O=C(Cn1ccnc1[N+](=O)[O-])NCc1ccccc1 [Benznidazole] | – | – | 0.65 µM | – | some attenuation of parasitemia | >40 | > 25000 nM | EC50 [1, 7]: 0.6 µM
5 | Clc1ccc(C(OCCN2CCCCC2)c2ccccc2)cc1 (centres unmarked) [Cloperastine, 1-{2-[(4-chlorophenyl)(phenyl)methoxy]ethyl}piperidine] | – | 1.2% | 5.8 µM | 100% | – | 3.8 | 21400 nM | EC50 [1, 7]: 5.6 µM; % of normal growth (T. cruzi amastigotes): 79%
6 | CN1CCCC1CCOC(C)(c1ccccc1)c1ccc(Cl)cc1 (centres unmarked) [Clemastine, 2-{2-[1-(4-chlorophenyl)-1-phenylethoxy]ethyl}-1-methylpyrrolidine] | – | – | – | 93.2% | no differences compared to the vehicle treated mice | – | – | % of normal growth (T. cruzi amastigotes): 74%
7 | Oc1ncnc2[nH]ncc12 [Allopurinol] | >17.9 | – | 2.8 µM | – | slight effects | – | > 50000 nM | –
8 | CC[C@@H]([C@H](C)O)n1ncn(-c2ccc(N3CCN(c4ccc(OC[C@@H]5CO[C@@](Cn6cncn6)(c6ccc(F)cc6F)C5)cc4)CC3)cc2)c1=O [Posaconazole] | – | – | – | – | some attenuation of parasitemia | – | – | –
